Molecules are shown by their SMILES. Read-outs that look alike come from different tables or passages of the source.

The text below walks through data of US8835422B2, “Substituted imidazoheterocycle derivatives” (Cara Therapeutics, Inc., priority 2008, dated 2014).

What all share (assay type): cell-based
Assay [1] concerns the target T1, rat CB2 receptor (rCB2) (Rattus norvegicus, UniProt Q9QZN9).
T1 construct: expressed in transfected cells; host or cells: CHO-K1 (plasmid pcDNA3.1)
T1 sequence (Q9QZN9 1-360): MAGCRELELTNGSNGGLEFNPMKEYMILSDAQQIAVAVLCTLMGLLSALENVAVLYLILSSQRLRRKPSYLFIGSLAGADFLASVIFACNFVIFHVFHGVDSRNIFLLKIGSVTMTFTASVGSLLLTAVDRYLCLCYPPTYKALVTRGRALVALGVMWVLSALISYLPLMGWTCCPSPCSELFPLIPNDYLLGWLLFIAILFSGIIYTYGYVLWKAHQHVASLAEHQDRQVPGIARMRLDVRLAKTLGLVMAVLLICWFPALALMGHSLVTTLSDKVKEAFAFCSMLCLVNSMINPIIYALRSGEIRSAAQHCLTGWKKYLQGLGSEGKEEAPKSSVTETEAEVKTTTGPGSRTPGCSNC
The assay can be described thus: cAMP assay (LANCE TR-FRET) in CHO-K1 cells expressing rat CB2. As to the method: (§1) The ability of compounds to act as agonists or inverse agonists at human CB2 and CB1 receptors (hCB2, hCB1, respectively) and at the rat CB2 receptor (rCB2) was determined by measuring changes in intracellular cAMP levels. Chinese Hamster Ovary (CHO-K1) cell lines stably expressing hCB2 (Genebank: X74328) or hCB1 (Genebank: X54937) were purchased from Euroscreen (Gosselies, Belgium). The rat CB2 receptor was expressed from genomic DNA (provided by M. Abood, California Pacific Medical Center) in CHO-K1 cells from expression plasmid vector, pcDNA3.1.
(§2) Receptor mediated responses were determined by measuring changes in intracellular cAMP using LANCE cAMP detection kit (cat #AD0264, Perkin Elmer, Wellesley, Mass.) based on time-resolved fluorescence resonance energy transfer (TR-FRET).
(§3) On the day of the experiment, cells were spun at low speed for 5 min at room temperature. […] Cell clumps were removed by filtering through cell strainer 40 μm (BD Falcon, Discovery Labware, Bedford, Mass.) and diluted to 2×10^5 cells/mL. Antibody supplied with the LANCE cAMP immunoassay kit was then added according to the manufacturer's instructions. An aliquot of cells was taken for un-induced controls. […] Cells were then incubated for 30 min at room temperature prior to adding to Proxiplates containing test compounds (final DMSO concentration was less than 0.5%) with a Multidrop bulk dispenser, followed by a sixty minute incubation at room temperature. The response was stopped by addition of the detection mix supplied with the LANCE kit. The reagents were allowed to equilibrate for three hours prior to reading on an Envision multi-mode detector (Perkin-Elmer). TR-FRET was measured using a 330-380 nm excitation filter, a 665 nm emission filter, dichroic mirror 380 nm and Z=1 mm. Cyclic AMP concentrations in each well were back-calculated from a cAMP standard curve run concurrently during each assay. Each plate contained 16 wells of forskolin stimulated cells and 16 wells of forskolin plus CP55,940-treated cells. […] Concentrations of cAMP were expressed as a percent of the difference of these two groups of wells.

The target in assay [2] is human CB1 receptor (hCB1) (Homo sapiens, UniProt P21554). Kind of assay: cAMP assay (LANCE TR-FRET) in CHO-K1 cells stably expressing hCB1. The procedure: as §1, §2, §3
Assay [3] addresses T2, human CB2 receptor (hCB2) (Homo sapiens, UniProt P34972).
T2 construct: host or cells: CHO-K1
Kind of assay: cAMP assay (LANCE TR-FRET) in CHO-K1 cells stably expressing hCB2. The procedure: as §1, §2, §3

T2 sequence (P34972 whole entry): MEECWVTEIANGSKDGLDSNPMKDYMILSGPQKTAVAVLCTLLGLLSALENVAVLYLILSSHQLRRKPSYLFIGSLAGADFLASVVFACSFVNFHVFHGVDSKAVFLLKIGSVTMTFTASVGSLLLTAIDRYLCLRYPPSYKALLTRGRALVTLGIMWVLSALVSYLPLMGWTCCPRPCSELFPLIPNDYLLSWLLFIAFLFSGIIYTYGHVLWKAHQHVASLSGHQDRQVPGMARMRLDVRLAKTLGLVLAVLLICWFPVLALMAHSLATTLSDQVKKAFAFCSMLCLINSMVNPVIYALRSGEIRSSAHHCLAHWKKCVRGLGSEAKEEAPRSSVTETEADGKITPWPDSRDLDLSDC
human CB1 receptor (hCB1), sequence (P21554 whole entry): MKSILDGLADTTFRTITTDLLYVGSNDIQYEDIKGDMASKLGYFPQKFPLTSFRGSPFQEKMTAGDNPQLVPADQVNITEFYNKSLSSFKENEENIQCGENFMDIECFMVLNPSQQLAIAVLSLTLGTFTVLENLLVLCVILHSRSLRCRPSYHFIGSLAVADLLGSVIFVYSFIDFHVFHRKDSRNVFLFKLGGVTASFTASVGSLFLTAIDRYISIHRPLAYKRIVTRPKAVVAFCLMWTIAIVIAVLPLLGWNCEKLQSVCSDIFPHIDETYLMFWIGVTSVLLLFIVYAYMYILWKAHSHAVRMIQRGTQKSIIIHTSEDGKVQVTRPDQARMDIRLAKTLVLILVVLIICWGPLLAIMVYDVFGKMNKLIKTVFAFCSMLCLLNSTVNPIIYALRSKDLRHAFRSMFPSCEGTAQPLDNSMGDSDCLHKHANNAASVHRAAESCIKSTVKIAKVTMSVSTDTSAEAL

The term EC50 denotes the concentration that produces a half-maximal response. Take `CNC(=O)[C@@H](NC(=O)c1nc(-c2ccccc2)n2c1CCN(CC1CC1)CC2)C(C)(C)C` [Compound 3-11, (S)-7-(cyclopropylmethyl)-N-(3,3-dimethyl-1-(methylamino)-1-oxobutan-2-yl)-3-phenyl-6,7,8,9-tetrahydro-5H-imidazo[1,5-d][1,4]diazepine-1-carboxamidc]: the EC50 in assay [1] is 0.0001 to 0.01 µM; in assay [2], more than 10 µM; in assay [3], more than 10 µM.

`Cc1nnc(-c2nc(-c3ccc(F)c(F)c3)n3c2CCCCC3)o1` [Compound 4-1, 2-(3-(3,4-difluorophenyl)-6,7,8,9-tetrahydro-5H-imidazo[1,5-a]azepin-1-yl)-5-methyl-1,3,4-oxadiazole]: the EC50 is more than 10 µM in assay [1] (above the detectable range, read-out: EC50 rat CB2 receptor) and more than 10 µM in assay [3] (text statement b297, read-out: EC50 human CB2 receptor).

As for `CNC(=O)[C@@H](NC(=O)c1nc(-c2ccccc2)n2c1CCN(C)CC2)C(C)(C)C` [Compound 3-9, (S)-N-(3,3-dimcthyl-1-(methylamino)-1-oxobutan-2-yl)-7-methyl-3-phenyl-6,7,8,9-tetrahydro-5H-imidazo[1,5-d][1,4]diazepine-1-carboxamide], the EC50 in assay [1], in assay [2] and in assay [3] was more than 10 µM in each case.

In assay [1], `CNC(=O)[C@@H](NC(=O)c1nc(-c2ccccc2)n2c1CCN(S(=O)(=O)c1ccc(F)cc1)CC2)C(C)(C)C` [Compound 3-15, (S)-N-(3,3-dimethyl-1-(methylamino)-1-oxobutan-2-yl)-7-(4-fluorophenyl-sulfonyl)-3-phenyl-6,7,8,9-tetrahydro-5H-imidazo[1,5-d][1,4]diazepine-1-carboxamide] had an EC50 of 0.0001 to 0.01 µM.

For the compound `CNC(=O)[C@@H](NC(=O)c1nc(-c2ccccc2)n2c1CCN(C(C)=O)CC2)C(C)(C)C` [Compound 3-12, (S)-7-acetyl-N-(3,3-dimethyl-1-(methylamino)-1-oxobutan-2-yl)-3-phenyl-6,7,8,9-tetrahydro-5H-imidazo[1,5-d][1,4]diazepine-1-carboxamide], the EC50 in assay [1], in assay [2] and in assay [3] was more than 10 µM each time.

Consider `CCS(=O)(=O)N1CCc2c(C(=O)N[C@H](C(=O)NC)C(C)(C)C)nc(-c3ccccc3)n2CC1` [Compound 3-14, (S)-N-(3,3-dimethyl-1-(methylamino)-1-oxobutan-2-yl)-7-(ethylsulfonyl)-3-phenyl-6,7,8,9-tetrahydro-5H-imidazo[1,5-d][1,4]diazepine-1-carboxamide], for which the EC50 is 0.01 to 0.1 µM in assay [1], more than 10 µM in assay [2] and more than 10 µM in assay [3].

For the compound `CNC(=O)[C@@H](NC(=O)c1nc(-c2ccccc2)n2c1CCN(CC(C)C)CC2)C(C)(C)C` [Compound 3-10, (S)-N-(3,3-dimethyl-1-(methylamino)-1-oxobutan-2-yl)-7-isobutyl-3-phenyl-6,7,8,9-tetrahydro-5H-imidazo[1,5-d][1,4]diazepine-1-carboxamide], the EC50 in assay [1] fell in the range of 0.01 to 0.1 µM.

Consider `CNC(=O)[C@@H](NC(=O)c1nc(-c2ccccc2)n2c1CCNCC2)C(C)(C)C` [Compound 3-8, (S)-N-(3,3-dimethyl-1-(methylamino)-1-oxobutan-2-yl)-3-phenyl-6,7,8,9-tetrahydro-5H-imidazo[1,5-d][1,4]diazepine-1-carboxamide], for which the EC50 in assay [1] was in the range of 0.01 to 0.1 µM.
